Laboratory results as given in patent US12668830B2, “Pharmaceutical compositions for prevention and/or treatment of infections and antibacterial-induced dysfunctions” (priority 2018, dated 2026).
“Also recorded” adds a separate entry of the source. Where two headings read alike, the source gives them in different places.

What was measured:
[1] = system: E. coli BW mutants (ΔacrA, respiration-defective); format: cell-based, Escherichia coli; conditions: ciprofloxacin 70% MIC
Protocol: Aminoglycosides depend on PMF-energized uptake and thus respiratory complexes; ciprofloxacin is effluxed by AcrAB-TolC. […] Bliss interaction scores (ε) were calculated as in the screen and are represented by the mean and standard deviation across 3-8 replicates. d) Gentamicin and ciprofloxacin antagonism networks for E. coli BW. Nodes represent drugs colored according to targeted cellular process (as FIG. 1a). Full and dashed edges represent antagonistic drug-drug interactions for which intracellular antibiotic concentration was and was not measured, respectively. […] The bars for fluoroquinolones and aminoglycosides account for an extrapolation of antagonistic interactions to all other members of the two classes, assuming they behave the same as ciprofloxacin and gentamicin, respectively.
The kanamycin resistance cassettes was excised when necessary using the plasmid pCP20. The plasmid used for mdfA overexpression was obtained from the mobile E. coli ORF library.

[2] = system: E. coli (BW25113 wildtype and mutants); test: Minimal Inhibitory Concentration (MIC) calculation; format: cell-based, Escherichia coli; conditions: for MIC: Escherichia coli; for Effect on MIC of chloramphenicol / Effect on MIC of ciprofloxacin: vanillin 150 μg/ml, aspirin 500 μg/ml, E. coli
Protocol: MICs to all drugs were computed using a logistic fit of growth (OD595 nm for 8 h) over 2-fold serial dilutions of the antibiotic concentrations for all strains used for the high throughput screening and follow-up experiments.

[3] = system: MDR clinical isolates E. coli 124, 1027, 1334; test: 8×8 checkerboard assays against MDR clinical isolates; format: cell-based, Escherichia coli
From the text: (§1) For each of the three Gram-negative species profiled in this study, the inventors used two broadly used and sequenced strains: Escherichia coli K-12 BW25113 and O8 IAI1, Salmonella enterica serovar typhimurium LT2 and 14028s, Pseudomonas aeruginosa PAO1 and PA14. To validate selected synergies, the inventors profiled 6 MDR clinical Enterobacteriaceae isolates recovered from human patient specimens: E. coli 124, 1027, 1334 and Klebsiella pneumoniae 718, 929 and 980.

[4] = system: MDR clinical isolates Klebsiella pneumoniae 718, 929 and 980; test: as above; format: cell-based; conditions: MDR K. pneumoniae isolates
From the text: as §1

[5] = system: E. coli, S. typhimurium and P. aeruginosa; test: Screen across all three species / conservation of drug-drug interactions; format: cell-based; conditions: for General effect in combinations: conserved interaction network; for Antibacterial activity / growth inhibition of the drug on its own: single drug, in the screen
Protocol: Conservation of drug-drug interactions between strains of the same species was assessed by Pearson correlation of the interactions scores ε. For potentially non-conserved drug-drug interactions, the expected fitness distributions of the two strains were taken into account.
To assess the cross-species conservation of drug-drug interactions, the inventors took into account only drug pairs that were probed in all three species. […] Interactions were then compared across the three species. Cases in which an interaction between drugs changed sign across species (conflicting interactions; ˜7% of all interactions) were excluded from the comparative “across-species” Venn diagram (FIG. 3D). Note that with current analysis a given drug-drug interaction may be conserved across species, but not conserved within the species.
Conservation at the single drug level was defined based on shared resistance and sensitivity. A strain was considered sensitive to a given drug if one of the drug concentrations inhibited growth for at least 30%.

[6] = system: E. coli BW25113; test: Intracellular spectinomycin concentration with [3H]-spectinomycin; format: cell-based, Escherichia coli; conditions: vanillin 150 μg/ml; mdfA-dependent
Protocol: Intracellular spectinomycin was quantified by measuring [3H]-spectinomycin (1 μCi/mg; Hartmann Analytic Corp.). Overnight cultures of E. coli BW25113 were diluted 1:1,000 into 1 ml LB with and without vanillin (150 μg/ml) and grown to OD595 nm˜0.5. 50 μg/ml [3H]-spectinomycin:spectinomycin 1:100 was added and the cultures were incubated for 1 h. Cultures were pelleted, washed twice with PBS with 50 μg/ml non-labeled spectinomycin, re suspended in 1% SDS and incubated for 20 min at 85° C. The lysate was mixed with 8 ml liquid scintillation (Perkin Elmer ULTIMA Gold) and counted for 1 min using a Perkin Elmer Tri-Carb 2800TR. Measured radioactivity was normalized to cell number as measured by OD595 nm.

[7] = system: marA; test: Quantitative RT-PCR of marA expression; format: cell-based, Escherichia coli; conditions: vanillin 150 μg/ml
Protocol: Overnight cultures of E. coli BW25113 and the marR deletion mutant were diluted 1:2,000 into 20 ml LB and grown at 37° C. to OD595 nm˜0.2. Aspirin or vanillin were added to the cultures to 500 and 150 μg/ml final concentration respectively (DMSO was added in the control), followed by a 30 min incubation period at 37° C. with agitation. Cells were harvested and RNA extraction was done with the RNeasy Protect Bacteria Mini Kit (Qiagen) according to manufacturer's directions. cDNA was prepared for qRT-PCR using SuperScript™ III Reverse Transcriptase (Thermo Fisher Scientific). marA and mdfA expression levels were estimated by quantitative RT-PCR using SYBR™ Green PCR master mix following the manufacturer's instructions (Thermo Fisher Scientific). Primer sequences for marA and recA are previously described. All experiments were conducted in at least three biological replicates, and relative expression levels were estimated according to Livak et al., using recA expression as reference.

[8] = system: AcrA; test: Immunoblot analysis for AcrA protein quantification; format: cell-based, Escherichia coli; conditions: vanillin 150 μg/ml; marA-dependent
Protocol: Overnight cultures of E. coli BW25113 and the ΔmarA mutant were diluted 1:1,000 into 50 ml LB containing 500 μg/ml aspirin, 150 μg/ml vanillin or DMSO (drugs solvent control), followed by growth with agitation at 37° C. to OD595 nm˜0.5. Cells were washed in PBS containing corresponding drugs or DMSO, then resuspended to match OD595 nm=1. Cell pellets were resuspended in Laemmli buffer and heated to 95° C. for 3 minutes followed by immunoblot analysis with a-AcrA polyclonal antiserum (gift from K. M. Pos) at 1:200,000 dilution. Primary antiserum was detected using anti-rabbit HRP (A0545 Sigma) at 1:5,000 dilution. Pixel densities of bands were quantified using ImageJ. At least five different biological replicates were blotted and summarized by their mean and standard deviation.

[9] = system: E. coli MG1655; test: Intracellular gentamicin concentration with [3H]-gentamicin; format: cell-based, Escherichia coli; conditions: gentamicin 5 μg/ml plus second drug
Protocol: Intracellular gentamicin was quantified by measuring [3H]-gentamicin (1 mCi/ml; Hartmann Analytic Corp.), as previously described. Overnight cultures of E. coli MG1655 (ther parental stain of BW25113) were diluted 1:1,000 into 5 ml LB and grown to OD595 nm˜0.1. [3H]-gentamicin was diluted in cold gentamicin to get a 5 mg/ml (0.1 mCi/ml) stock solution, which was then added to the culture at a final concentration of 5 μg/ml (0.1 μCi/ml), simultaneously with the second drug: Berberine (200 μg/ml), Erythromycin (15 μg/ml), Metformin (13000 μg/ml), Procaine (6000 μg/ml), Loperamide (400 μg/ml), Benzalkonium (5 μg/ml). […] Cultures were then incubated at 37° C. on a rotary shaker. At 0, 0.5, 1, 1.5 and 2 h time-points, 500 μl aliquots were removed and applied to a 0.45 μm-pore-size HAWP membrane filter (Millipore) pretreated with 1 ml of unlabeled gentamicin (250 μg/ml). Filters were washed with 10 ml of 1.5% NaCl, placed into counting vials, and dried for 30 min at 52° C. 8 ml of liquid scintillation were then added to the dried filters and vials were incubated overnight at room temperature before being counted for 5 min. Gentamicin uptake efficiency is expressed as total accumulation of gentamicin (ng) per 108 cells, and plotted here for the final timepoint (2 h) for simplicity.

[10] = system: E. coli BW and E. coli iAi1; test: Benchmarking 8×8 checkerboard assays (Bliss / Loewe additivity); format: cell-based, Escherichia coli; conditions: 8×8 checkerboards
From the text: For combinations between ß-lactams for which high-resolution 8×8 checkerboards with sufficient growth inhibition was available in the validation dataset, Loewe additivity was used to confirm the interactions. Drug-drug interactions were inferred by the shape of the isoboles (lines of equal growth) in two-dimensional drug concentration plots. […] To interpolate IC50 concentrations (or other ICn %), a logistic model was used to fit the growth for each concentration of the first drug across different concentrations of the second drug. The null-hypothesis of this model is represented by the additivity line: a linear isobole connecting equal individual IC's by the two drugs.
As in the screen, growth was assessed based on OD595 nm at early stationary phase for the no drug controls. The time-points used in the screen were used again here for screen strains, whereas 8 hours were used for all E. coli and K. pneumoniae MDR isolates. Fitness was calculated by dividing OD595 nm after single or double drug treatment by no drug treatment for each individual checkerboard. Bliss scores (ε) were calculated for all concentration ratios tested per drug combination, resulting in 49 ε values per drug pair. […] Antagonism was called when the median of the & distribution was above 0.1 or the Q3 was above 0.15. […]

C[n+]1ccc(-c2cc[n+](C)cc2)cc1 [paraquat]
Antagonism with ciprofloxacin in mutant [1]: resolved

CN[C@@H]1[C@H](O)[C@H](NC)[C@H]2O[C@@]3(O)C(=O)C[C@@H](C)O[C@H]3O[C@@H]2[C@H]1O [spectinomycin]
Spectinomycin MIC change upon addition of vanillin ([2]; 100 μg/ml vanillin, wildtype E. coli BW and knockouts of AcrAB-TolC members or MarA): decreases
MIC ([2]; BW25113, read-out: MIC of spectinomycin, E. coli, with vanillin (65 μg/ml)): ~15 µg/mL
MIC ([2]; BW25113, read-out: MIC of spectinomycin, largely resistant E. coli, without vanillin): > 30 µg/mL
Spectinomycin MIC change ([2]; deletion of mdfA): increased
Spectinomycin sensitivity (dose response) ([2]; overexpression of mdfA (pmdfA) vs E. coli BW, MIC does not change): increased spectinomycin sensitivity
Increase of spectinomycin MIC ([2]; with 500 μg/ml aspirin): ~3 fold
Decrease of spectinomycin MIC ([2]; with vanillin, mild overexpression of mdfA (pmdfA), comparing to MIC of combination in wildtype): ~2 fold

CCN(CC)CCOC(=O)c1ccc(N)cc1 [procaine]
Effect on activity of doxycycline ([3]; MDR E. coli isolates): resensitized
Effect on activity of fusidic acid ([3]; MDR E. coli isolates): resensitized
Effect on activity of doxycycline [4]: resensitized
Effect on activity of fusidic acid [4]: resensitized
General effect in combinations [5]: general potentiating effect
Antibacterial activity / growth inhibition of the drug on its own [5]: did not inhibit bacterial growth on its own

CC(=O)Oc1ccccc1C(=O)O [aspirin, acetylsalicylic acid]
Effect on MIC of chloramphenicol [2]: increase
Effect on MIC of ciprofloxacin [2]: increase

COc1cc(C=O)ccc1O [vanillin]
Effect on intracellular spectinomycin concentration [6]: increased; also recorded: accumulation
Effect on activity of spectinomycin ([3]; E. coli MDR isolates): potentiated
Antibacterial activity / growth inhibition of the drug on its own [5]: no antibacterial activity
marA expression [7]: overexpression
Effect on MIC of chloramphenicol [2]: increase
Effect on MIC of ciprofloxacin [2]: increase
AcrA protein levels [8]: increases

benzalkonium
Antagonism with ciprofloxacin in mutant [1]: remain largely intact
Effect on intracellular gentamicin concentration [9]: decreases

CN(C)C(=O)C(CCN1CCC(O)(c2ccc(Cl)cc2)CC1)(c1ccccc1)c1ccccc1 [Loperamide, loperamide]
Effect on activity of colistin ([3]; MDR E. coli isolates): potentiated
Effect on activity of doxycycline ([3]; MDR E. coli isolates): potentiated
Effect on activity of colistin [4]: potentiated
Effect on activity of doxycycline [4]: potentiated
General effect in combinations [5]: general potentiating effect

COc1ccc(CCN(C)CCCC(C#N)(c2ccc(OC)c(OC)c2)C(C)C)cc1OC (stereo not shown) [verapamil]
General effect in combinations [5]: general potentiating effect

CCN1CCN(C(=O)N[C@@H](C(=O)N[C@@H]2C(=O)N3[C@@H]2SC(C)(C)[C@@H]3C(=O)O)c2ccccc2)C(=O)C1=O [Piperacillin, piperacillin]
Growth inhibition reached by single drug [10]: did not reach 50% growth inhibition

Cn1c(=O)c2c(ncn2C)n(C)c1=O [caffeine]
Antagonism with ciprofloxacin in mutant [1]: resolved

COc1cc(/C=C/C(=O)CC(=O)/C=C/c2ccc(O)c(OC)c2)ccc1O [curcumin]
Antagonism with ciprofloxacin in mutant [1]: remain largely intact
